Among the data in ChEMBL document CHEMBL1136509, “Structure-activity relationships of novel anti-malarial agents: part 5. N-(4-acylamino-3-benzoylphenyl)-[5-(4-nitrophenyl)-2-furyl]acrylic acid amides” (Bioorg Med Chem Lett, 2003) are IC50 values, retold here.

This test has as its system Plasmodium falciparum. Briefly: Inhibitory activity against Plasmodium falciparum Dd2 in erythrocytes by semiautomated micro dilution. The format is functional, organism-based.
One may read the IC50 as the point on the concentration scale where inhibition reaches its midpoint. A lower IC50 goes with inhibition by little substance. The molecule `O=C(/C=C/c1ccc(-c2ccc([N+](=O)[O-])cc2)o1)Nc1ccc(NC(=O)Cc2ccccc2C(F)(F)F)c(C(=O)c2ccccc2)c1` had a half-inhibitory concentration (IC50) of 1000 nM.
Molecule `O=C(/C=C/c1ccc(-c2ccc([N+](=O)[O-])cc2)o1)Nc1ccc(NC(=O)Cc2ccccc2Br)c(C(=O)c2ccccc2)c1` displayed an IC50 of 1000 nM.
Regarding `O=C(/C=C/c1ccc(-c2ccc([N+](=O)[O-])cc2)o1)Nc1ccc(NC(=O)c2ccc(Cl)cc2)c(C(=O)c2ccccc2)c1`, the IC50 is 2500 nM.
`O=C(/C=C/c1ccc(-c2ccc([N+](=O)[O-])cc2)o1)Nc1ccc(NC(=O)Cc2ccc3ccccc3c2)c(C(=O)c2ccccc2)c1` had a 50% inhibitory concentration (IC50) of 210 nM.
The result for `Cc1cccc(CC(=O)Nc2ccc(NC(=O)/C=C/c3ccc(-c4ccc([N+](=O)[O-])cc4)o3)cc2C(=O)c2ccccc2)c1` reads 150 nM; that for `Cc1ccccc1CC(=O)Nc1ccc(NC(=O)/C=C/c2ccc(-c3ccc([N+](=O)[O-])cc3)o2)cc1C(=O)c1ccccc1`, 650 nM.
Regarding `O=C(/C=C/c1ccc(-c2ccc([N+](=O)[O-])cc2)o1)Nc1ccc(NC(=O)c2cccc3ccccc23)c(C(=O)c2ccccc2)c1`, 770 nM corresponded to half-maximal inhibition (IC50).
In the case of `O=C(/C=C/c1ccc(-c2ccc([N+](=O)[O-])cc2)o1)Nc1ccc(NC(=O)Cc2ccc(Cl)cc2)c(C(=O)c2ccccc2)c1` it was 64 nM; in that of `O=C(/C=C/c1ccc(-c2ccc([N+](=O)[O-])cc2)o1)Nc1ccc(NC(=O)Cc2ccc(-c3ccccc3)cc2)c(C(=O)c2ccccc2)c1`, 1000 nM; in that of `O=C(/C=C/c1ccc(-c2ccc([N+](=O)[O-])cc2)o1)Nc1ccc(NC(=O)Cc2ccccc2)c(C(=O)c2ccccc2)c1`, 270 nM.
On to `COc1ccc(CC(=O)Nc2ccc(NC(=O)/C=C/c3ccc(-c4ccc([N+](=O)[O-])cc4)o3)cc2C(=O)c2ccccc2)cc1`, for which the half-inhibitory concentration (IC50) amounted to 320 nM.
In the case of `O=C(/C=C/c1ccc(-c2ccc([N+](=O)[O-])cc2)o1)Nc1ccc(NC(=O)Cc2ccc(C(F)(F)F)cc2)c(C(=O)c2ccccc2)c1` it was 47 nM; in that of `O=C(/C=C/c1ccc(-c2ccc([N+](=O)[O-])cc2)o1)Nc1ccc(NC(=O)C(c2ccccc2)c2ccccc2)c(C(=O)c2ccccc2)c1`, 5500 nM; in that of `O=C(/C=C/c1ccc(-c2ccc([N+](=O)[O-])cc2)o1)Nc1ccc(NC(=O)Cc2cccc3ccccc23)c(C(=O)c2ccccc2)c1`, 250 nM.
The result for `O=C(/C=C/c1ccc(-c2ccc([N+](=O)[O-])cc2)o1)Nc1ccc(NC(=O)Cc2ccc(Br)cc2)c(C(=O)c2ccccc2)c1` reads 70 nM.
The result for `O=C(/C=C/c1ccc(-c2ccc([N+](=O)[O-])cc2)o1)Nc1ccc(NC(=O)Cc2ccc([N+](=O)[O-])cc2)c(C(=O)c2ccccc2)c1` reads 1400 nM; that for `O=C(/C=C/c1ccc(-c2ccc([N+](=O)[O-])cc2)o1)Nc1ccc(NC(=O)c2ccccc2)c(C(=O)c2ccccc2)c1`, 3000 nM; that for `CC(C(=O)Nc1ccc(NC(=O)/C=C/c2ccc(-c3ccc([N+](=O)[O-])cc3)o2)cc1C(=O)c1ccccc1)c1ccccc1` (stereo not given), 500 nM.
Molecule `O=C(/C=C/c1ccc(-c2ccc([N+](=O)[O-])cc2)o1)Nc1ccc(NC(=O)c2ccc3ccccc3c2)c(C(=O)c2ccccc2)c1` showed an IC50 of 2500 nM.
Regarding `O=C(/C=C/c1ccc(-c2ccc([N+](=O)[O-])cc2)o1)Nc1ccc(NC(=O)Cc2ccc(F)cc2)c(C(=O)c2ccccc2)c1`, the IC50 worked out at 230 nM.
